# Tests used:
# SLC1A5 = biological target: T1, SLC1A5 (Homo sapiens, UniProt Q15758); experiment: thermal shift assay
# T1 sequence (Q15758 1-541): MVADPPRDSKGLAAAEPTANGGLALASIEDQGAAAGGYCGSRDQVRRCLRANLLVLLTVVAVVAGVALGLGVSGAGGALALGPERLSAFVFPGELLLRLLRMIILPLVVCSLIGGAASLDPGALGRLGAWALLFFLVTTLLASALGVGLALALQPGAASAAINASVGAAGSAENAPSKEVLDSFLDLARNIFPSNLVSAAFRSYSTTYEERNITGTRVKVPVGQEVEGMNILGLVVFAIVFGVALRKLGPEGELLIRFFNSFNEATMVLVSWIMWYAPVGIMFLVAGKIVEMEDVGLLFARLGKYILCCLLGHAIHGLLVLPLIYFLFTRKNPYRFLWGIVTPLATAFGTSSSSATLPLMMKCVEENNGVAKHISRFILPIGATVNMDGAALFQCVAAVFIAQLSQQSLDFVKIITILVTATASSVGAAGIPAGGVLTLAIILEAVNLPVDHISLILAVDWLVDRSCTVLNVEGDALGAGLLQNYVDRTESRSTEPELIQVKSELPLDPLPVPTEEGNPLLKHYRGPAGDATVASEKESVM
# SLC38A2 = biological target: T2, SLC38A2 (Homo sapiens, UniProt Q96QD8); experiment: thermal shift assay
# T2 sequence (Q96QD8 1-506): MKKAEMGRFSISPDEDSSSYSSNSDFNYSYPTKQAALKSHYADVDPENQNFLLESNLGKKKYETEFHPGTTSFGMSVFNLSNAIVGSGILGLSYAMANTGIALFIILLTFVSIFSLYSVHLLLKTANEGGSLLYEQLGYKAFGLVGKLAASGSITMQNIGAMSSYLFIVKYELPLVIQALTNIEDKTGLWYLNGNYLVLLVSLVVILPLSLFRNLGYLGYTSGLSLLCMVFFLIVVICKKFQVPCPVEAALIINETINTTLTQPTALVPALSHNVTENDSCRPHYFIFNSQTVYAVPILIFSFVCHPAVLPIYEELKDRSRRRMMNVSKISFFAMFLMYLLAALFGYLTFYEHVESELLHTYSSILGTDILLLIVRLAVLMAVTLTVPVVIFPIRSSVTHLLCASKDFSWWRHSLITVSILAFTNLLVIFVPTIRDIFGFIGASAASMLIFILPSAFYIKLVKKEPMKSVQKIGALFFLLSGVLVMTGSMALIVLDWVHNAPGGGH
smiles,measurement,setting,value
Cc1cccc(COc2ccccc2CN(CC[C@H](N)C(=O)O)Cc2ccccc2OCc2cccc(C)c2)c1 [V-9302],Tm,SLC1A5,"V-9302 significantly altered the Tm values of SLC1A5, SLC38A2, SLC6A19, and ANO1"
same,Tm,SLC38A2,"V-9302 significantly altered the Tm values of SLC1A5, SLC38A2, SLC6A19, and ANO1"
